The numbers were not newly measured in patent publication US20090155363A1, “METHODS FOR ORAL ADMINISTRATION OF ACTIVE DRUGS” (priority 2007, published 2009), which cites them from elsewhere.

The conditions of this series: drug mixed with foods such as applesauce or vegetable juice, relative to administration of a nizatidine capsule with water.

On to `CNC(=C[N+](=O)[O-])NCCSCc1csc(CN(C)C)n1` [nizatidine], for which the reduction of bioavailability is on record as 30 to 40%.
